We go through two compounds from US9539248B2, “Agent for ameliorating chronic obstructive pulmonary disease” (LTT BIO-PHARMA CO., LTD., priority 2012, dated 2017).

In assay [1] the test system is porcine pancreatic elastase-induced pulmonary emphysema and altered lung function. Nature of the assay: Test Example 1: porcine pancreatic elastase-induced pulmonary emphysema and altered lung function, mepenzolate via the airway or by inhalation. The assay is classed as in vivo, ICR mice. The settings on record: for damage in the alveolar wall: H&E sections; for mean linear intercept (MLI): PPE 100 μg per mouse. On the procedure: 100 μg of porcine pancreatic elastase per mouse and different doses of mepenzolate were dissolved in 30 μL of phosphate buffered saline (PBS) per mouse and this solution was injected into the airway of a mouse anesthetized with chloral hydrate by a micropipette. A mouse was placed in a chamber. Then, the whole amount of a mepenzolate solution prepared by dissolving mepenzolate in 10 mL of PBS was sprayed onto the mouse over 30 minutes by using an ultrasonic nebulizer (NE-U07, manufactured by OMRON Corporation) that was connected to the chamber. Lung function and airway resistance were measured by using a computer-controlled small animal ventilator (FlexiVent, SCIREQ Scientific Respiratory Equipment Inc.). A mouse was anesthetized with chloral hydrate, a tracheostomy was performed, and an 8 mm metal tube was inserted into the trachea. Ventilation was performed on the mouse with a volume of 8.7 mL/kg, a positive end-expiratory pressure of 2 to 3 cmH2O, and a respiratory rate of 150 times/min. Total respiratory system elastance was measured by a snap shot technique and tissue elastance was measured by a forced oscillation technique. Data analysis was conducted by using FlexiVent software. A lung damage model for pulmonary emphysema and altered lung function was generated by administering 100 μg of porcine pancreatic elastase per mouse to 4 to 6 week old ICR mice once via the airway. Different doses of mepenzolate were administered to these mice via the airway (μg/kg) or by inhalation (μg/chamber) once daily for 14 days (Day 0 to Day 13) and the mice were euthanized on Day 14. Sections of the lung tissues were prepared and dyed with H&E (hematoxylin-eosin staining), and stained images were obtained by electron microscopy. The airspace size in the cells in the H&E stained images obtained above was measured as a mean linear intercept (MLI; μm). Then, on Day 14, the total respiratory system elastance and the tissue elastance were measured by the method described in the above-mentioned “Measurement of Elastance.”

The test system of assay [2] is porcine pancreatic elastase pretreatment-induced pulmonary emphysema and altered lung function. Nature of the assay: Test Example 2: porcine pancreatic elastase pretreatment-induced pulmonary emphysema and altered lung function. The assay is classed as in vivo, ICR mice. The protocol: 100 μg of porcine pancreatic elastase per mouse and different doses of mepenzolate were dissolved in 30 μL of phosphate buffered saline (PBS) per mouse and this solution was injected into the airway of a mouse anesthetized with chloral hydrate by a micropipette.
(§1) Lung function and airway resistance were measured by using a computer-controlled small animal ventilator (FlexiVent, SCIREQ Scientific Respiratory Equipment Inc.).
A mouse was anesthetized with chloral hydrate, a tracheostomy was performed, and an 8 mm metal tube was inserted into the trachea. Ventilation was performed on the mouse with a volume of 8.7 mL/kg, a positive end-expiratory pressure of 2 to 3 cmH2O, and a respiratory rate of 150 times/min.
Total respiratory system elastance was measured by a snap shot technique and tissue elastance was measured by a forced oscillation technique.
After 4 to 6 week old ICR mice were used and treated with porcine pancreatic elastase by a similar method to that in Test Example 1, different doses (μg/kg) of mepenzolate were administered to these mice via the airway once daily from 14 days to 20 days after the treatment. Then, the mice were euthanized, sections of the lung tissues were prepared and dyed with H&E, and stained images were obtained by electron microscopy.
Subsequently, the airspace size in the cells in the obtained H&E stained images was measured as a mean linear intercept.
Then, on Day 21, the total respiratory system elastance and the tissue elastance were measured by a similar method to that in Test Example 1.

Assay [3] deals with poor lung function induced by porcine pancreatic elastase. Nature of the assay: Test Example 3: FEV0.05/FVC in poor lung function induced by porcine pancreatic elastase, compared with muscarinic antagonists. The settings on record: 38 μg/kg by airway administration once daily for 11 days, measured on Day 14 (FIG. 10). The assay is classed as in vivo, ICR mice. On the procedure:
Measurement of a ratio of forced expiratory volume (FEV) in the first 0.05 seconds to forced vital capacity (FVC) (FEV0.05/FVC) was performed by using the above-mentioned computer-controlled small animal ventilator connected to a negative pressure reservoir (SCIREQ Scientific Respiratory Equipment Inc.). FEV0.05/PVC was determined by using the FlexiVent software. As with Test Example 1, 4 to 6 week old ICR mice were treated with porcine pancreatic elastase. […] On Day 14, FEV0.05/FVC was measured by the method described in the above-mentioned “Measurement of FEV0.05/FVC.”

Assay [4] relates to methacholine-induced airway constriction. Nature of the assay: Test Example 4: methacholine-induced airway constriction, airway administration. The assay is classed as in vivo, ICR mice. On the procedure:
as §1
Increase in airway resistance induced by methacoline was measured. 4 to 6 week old ICR mice received 1 mg/mL methacoline by nebulization over 20 seconds and this was repeated five times. After administration of methacoline was completed, the airway resistance was measured by a snap shot technique. All the data were analyzed by using FlexiVent software.
Different doses (μg/kg) of mepenzolate were administered to the mice via the airway, and one hour after administration, the mice received five exposures to nebulized methacoline, and then, the airway resistance for each dose was measured.
Furthermore, mepenzolate was administered to the mice at a dose of 38 μg/kg. Then, the mice received five exposures to nebulized methacoline at 6 hours, 24 hours, and 48 hours after drug administration. The airway resistance for each time length was measured.

For assay [5], the system named is porcine pancreatic elastase-induced inflammation. Nature of the assay: Test Example 5: porcine pancreatic elastase-induced inflammation (BALF cell counts and cytokines). It counts as in vivo, ICR mice. On the procedure: Different doses of mepenzolate were administered to 4 to 6 week old ICR mice once via the airway. 100 μg of porcine pancreatic elastase per mouse was administered one hour after administration of mepenzolate. Bronchoalveolar lavage fluid (BALF) was collected from the lung 24 hours after administration of porcine pancreatic elastase and a total cell count and a neutrophil count were measured. Furthermore, the total number of TNF-α, MIP-2, MCP-1, or KC in the bronchoalveolar lavage fluid when 38 μg/kg of mepenzolate was administered via the airway was measured by an ELISA method.

For assay [6], the system named is pulmonary emphysema and altered lung function resulting from smoking. Nature of the assay: Test Example 6: pulmonary emphysema and altered lung function resulting from smoking. It counts as in vivo, DBA/2 mice. The settings on record: cigarette smoke 6 weeks. The protocol: Three-times-a-day exposure to smoking and once-a-day coadministration of 38 μg/kg of mepenzolate were performed on 5 week old DBA/2 mice, 5 days a week (Monday to Friday) for 6 weeks. The mice were subjected to only smoking during the final week. The mice were subjected to smoking by the method described below. 15 to 20 mice were placed in a 45 L chamber and the chamber was connected to a cigarette smoke generator. Commercially available unfiltered cigarette that produced 28 mg of tar and 2.3 mg of nicotine were used. The mice were exposed to smoke of one cigarette over 35 minutes, which was repeated three times a day for five days a week. This was continued for 6 weeks. The mice were made to inhale the cigarette smoke 15 times over a 5-minute period. Mepenzolate was administered to the mice by inhalation. After smoking was completed, the mice were euthanized, sections of the lung tissues were prepared and dyed with H&E, and stained images were obtained by electron microscopy. The airspace size in the cells in the H&E stained images obtained above was measured as a mean linear intercept. Then, the total respiratory system elastance and the tissue elastance were measured by a similar method to that in Test Example 1.

Assay [7] relates to porcine pancreatic elastase-induced pulmonary emphysema and altered lung function. Nature of the assay: Test Example 7: oral administration in porcine pancreatic elastase-induced pulmonary emphysema and altered lung function. The assay is classed as in vivo, ICR mice. The settings on record: oral administration once daily for 14 days, different doses (mg/kg) (FIG. 18 to 20). On the procedure:
100 μg of porcine pancreatic elastase per mouse was administered to 4 to 6 week old ICR mice once via the airway. Then, different doses (mg/kg) of mepenzolate were administered to the mice orally once daily for 14 days. After administration, sections of the lung tissues were excised. Subsequently, the sections were subjected to H&E dyeing, MLI measurement, and elastance measurement performed by a similar method to that in Test Example 1.

The subject of assay [8] is porcine pancreatic elastase-induced COPD model. Nature of the assay: Test Example 8: rectal administration in porcine pancreatic elastase-induced COPD model, inflammatory cells in alveolar lavage fluid. It counts as in vivo, ICR mice. As to conditions: intrarectal once daily, lavage fluid collected 3 days later (FIG. 21). On the procedure: 100 μg of porcine pancreatic elastase per mouse was administered to 4 to 6 week old ICR mice once via the airway to induce damage in the lung. Different concentrations of mepenzolate were administered intrarectally once daily. The alveolar lavage fluid was collected 3 days later and the total cell count was counted. The neutrophil count was also counted by dyeing the cells by a Diff-Quick technique.

Assay [9] has the same test system. Nature of the assay: Test Example 8: rectal administration in porcine pancreatic elastase-induced COPD model, lung damage (H&E, MLI, elastance, FEV0.05/FVC). The assay is classed as in vivo, ICR mice. As to conditions: intrarectal once daily for 14 days, different doses (mg/kg) (FIG. 22 to 24). On the procedure: 100 μg of porcine pancreatic elastase per mouse was administered to 4 to 6 week old ICR mice once via the airway to induce damage in the lung. Furthermore, different doses (mg/kg) of mepenzolate were administered to the mice intrarectally once daily for 14 days. After administration, sections of the lung tissues were excised. Subsequently, the sections were subjected to H&E dyeing, MLI measurement, and elastance measurement performed by a similar method to that in Test Example 1.

For assay [10], the system named is methacoline-induced airway constriction. Nature of the assay: Test Example 9: rectal administration in methacoline-induced airway constriction. As to conditions: different doses (mg/kg) (FIG. 25). The assay is classed as in vivo, mice. The protocol:
Increase in airway resistance induced by methacoline was measured. 4 to 6 week old ICR mice received 1 mg/mL methacoline by nebulization over 20 seconds and this was repeated five times. After administration of methacoline was completed, the airway resistance was measured by a snap shot technique. All the data were analyzed by using FlexiVent software. Different doses (mg/kg) of mepenzolate were administered intrarectally and airway resistance induced by methacoline was measured by a similar method to that in Test Example 4.

Where [11] appears, read: airway administration, Day 14 (FIG. 3).
[12] abbreviates: inhalation administration, Day 14 (FIG. 6).
Setting [13] is: airway administration, Day 21 (FIG. 9).
[14] abbreviates: 38 μg/kg via the airway, ELISA (FIG. 14).
[15] abbreviates: different doses once via the airway 1 h before PPE, BALF 24 hours after PPE (FIG. 13).
The mark [16] stands for this setting: 38 μg/kg once a day by inhalation (FIG. 17).

Turning to `C[N+]1(C)CCC[C@@H](OC(=O)C(O)(c2ccccc2)c2ccccc2)C1` (racemic) [mepenzolate, mepenzolate bromide], the “damage in the alveolar wall” value in assay [1] (airway administration once daily for 14 days) is listed as “improved”; in assay [1] (inhalation administration once daily for 14 days), “improved”; in assay [2] (airway administration once daily from 14 to 20 days after PPE treatment), “improved dose-dependently”; in assay [6] (38 μg/kg once a day by inhalation), “improved”. In addition, the “mean linear intercept (MLI)” value in [1] (airway administration once daily for 14 days, Day 14 (FIG. 1, 2)) is “suppressed”; in assay [1] (inhalation administration once daily for 14 days, Day 14 (FIG. 4, 5)), “suppressed”. Moreover, the tissue elastance entry in [1] (setting [11]), in assay [1] (setting [12]), in assay [2] (setting [13]) and in [6] (setting [16]) was “significantly improved” each time. Moreover, the “total respiratory system elastance” value in assay [1] (setting [11]), in assay [1] (setting [12]), in assay [2] (setting [13]) and in [6] (setting [16]) was “significantly improved” in each case. Besides, the “suppressive effect on mean linear intercept, inhalation compared with airway administration” value in assay [1] (inhalation vs airway administration) is “inhalation administration had a slightly better suppressive effect”. The mean linear intercept result in assay [2] (airway administration once daily from 14 to 20 days after PPE treatment (FIG. 7, 8)) is reported as “suppressed”; in [6] (38 μg/kg once a day by inhalation (FIG. 15, 16)) it was “suppressed”. In addition, the “recovering effect of vital capacity represented by FEV0.05/FVC reduced by PPE administration” value in [3] is reported as “effectively exhibited a recovering effect”. Further, the “airway resistance induced by methacoline, duration of effect” value in assay [4] (38 μg/kg, methacoline at 6, 24 and 48 hours after administration (FIG. 12)) is recorded as “reduced the airway resistance even 24 hours after administration”. The “airway resistance induced by methacoline” value in assay [4] (airway administration at 0.04, 0.08, 0.38, 3.8 and 38.0 μg/kg, one hour after administration (FIG. 11)) is given as “reduced the airway resistance almost dose-dependently”; in assay [10], “showed an excellent effect”. The “KC in the BALF” value in [5] (setting [14]) is recorded as “decreased”. In assay [5] (setting [14]), the “MCP-1 in the BALF” value is reported as “decreased”. The “MIP-2 in the BALF” value in assay [5] (setting [14]) is recorded as “decreased”. Besides, the “TNF-α in the BALF” value in assay [5] (setting [14]) is given as “decreased”. In addition, the “neutrophil count of the BALF” value in assay [5] (setting [15]) is “decreased dependently on the dose”. The “total cell count of the BALF” value in [5] (setting [15]) was “decreased dependently on the dose”. The “damage in the lung (H&E, MLI, elastance)” value in [7] is reported as “improved damage in the lung”. The “inflammatory cells (total cell count, neutrophil count) in alveolar lavage fluid” value in [8] is “decrease in the inflammatory cells was observed”. Besides, in assay [9], the “damage in the lung induced by elastase (H&E, MLI, elastance, FEV0.05/FVC)” value is “improved damage in the lung induced by elastase”.
For the compound `CN1CCN(CC(=O)N2c3ccccc3C(=O)Nc3cccnc32)CC1` [pirenzepine], in [3], the “recovering effect of vital capacity represented by FEV0.05/FVC reduced by PPE administration” value is given as “did not show a significant recovering effect”.
